The values below come from publication PMC12022980, “Rational Design of PROTAC Linkers Featuring Ferrocene as a Molecular Hinge to Enable Dynamic Conformational Changes” (Journal of the American Chemical Society, 2025).

Data set [1] has as its target VCB protein complex (VHL:ElonginC:ElonginB) (Homo sapiens, UniProt P40337). Put plainly: Native gel electrophoresis assay for ternary complex formation. It counts as binding. The conditions noted are these: VCB incubated with PROTAC 30 min, room temperature. The text has this:
To monitor ternary complex formation mediated by FerroTACs, we leveraged native gel electrophoresis assay, a methodology recently validated to assess VHL dimerization by homo-PROTACs.[41] This in vitro approach serves as a rapid semiqualitative tool to evaluate homo-FerroTAC activity in promoting stable ternary protein complexes. The technique is user-friendly, suitable for higher throughput, and requires lower protein quantities compared to other biophysical methods. The recombinant VCB protein complex (VHL:ElonginC:ElonginB) was incubated with the corresponding Homo-PROTACs (CM11, AS1, cisAS1, AS2) for 30 min at room temperature, followed by non-denaturing gel electrophoresis. Ternary complex formation was indicated by an upward shift in the protein band on the gel, in agreement with the higher molecular weight of the complex. […]
antibody (LI-COR #926-32213, 1:5,000) or IRDye 800CW donkey anti-mouse secondary antibody, (Li-COR […]
room temperature and protected from light. Thereafter, the membranes were washed with TBS-T three times for 10 min, and protein bands were acquired using a ChemiDoc MP imaging system (Bio-Rad). Band quantification was performed using Image Lab software and reported as ratio of each protein band relative to the lane’s loading control. The values obtained were then normalised to vehicle control.
Native Gel Electrophoresis Assay
Gel casting. […]

Another data set has as its target T1, pVHL30 (Homo sapiens, UniProt P40337).
T1 construct: endogenous in cells; host or cells: HEK293 (ATCC)
Further details: method as in PMID 29018234. The conditions noted are these: cited from earlier work.

T1 sequence (P40337 whole entry): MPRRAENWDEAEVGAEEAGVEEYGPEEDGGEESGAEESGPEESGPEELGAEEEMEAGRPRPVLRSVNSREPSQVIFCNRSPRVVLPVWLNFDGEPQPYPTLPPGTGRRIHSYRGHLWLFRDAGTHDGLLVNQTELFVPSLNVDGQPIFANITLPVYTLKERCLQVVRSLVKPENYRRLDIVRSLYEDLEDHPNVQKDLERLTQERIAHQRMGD
Chain of VCB protein complex (VHL:ElonginC:ElonginB) (P40337 54-213 limits assumed, species assumed): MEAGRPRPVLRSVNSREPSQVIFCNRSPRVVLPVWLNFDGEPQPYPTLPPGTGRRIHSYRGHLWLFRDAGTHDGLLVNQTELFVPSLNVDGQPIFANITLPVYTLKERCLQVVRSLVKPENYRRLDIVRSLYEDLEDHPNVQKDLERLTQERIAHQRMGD
Chain of VCB protein complex (VHL:ElonginC:ElonginB) (Q15369 17-112 partner limits assumed, species assumed): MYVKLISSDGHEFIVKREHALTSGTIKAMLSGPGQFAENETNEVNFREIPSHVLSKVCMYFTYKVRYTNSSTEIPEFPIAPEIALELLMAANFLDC
Chain of VCB protein complex (VHL:ElonginC:ElonginB) (Q15370 1-104 partner limits assumed, species assumed): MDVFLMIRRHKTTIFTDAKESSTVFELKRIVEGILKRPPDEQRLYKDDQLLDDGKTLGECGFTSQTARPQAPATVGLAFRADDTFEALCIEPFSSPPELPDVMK

As to `Cc1ncsc1-c1ccc(CNC(=O)[C@@H]2C[C@@H](O)CN2C(=O)[C@@H](NC(=O)COCCOCCOCCOCCOCCOCC(=O)N[C@H](C(=O)N2C[C@H](O)C[C@H]2C(=O)NCc2ccc(-c3scnc3C)cc2)C(C)(C)C)C(C)(C)C)cc1` [CM11], the “ternary complex formation, native gel (in words)” value in data set [1] is listed as “induced formation of an up-shifted protein band”. The “t1/2 (pVHL30 degradation half-life)” value on pVHL30 (1 μM, calculated from ref 38) is 85.1 min. Also, the DC50 at pVHL30 (reference value, CM11 only run at 1 μM here, read-out: DC50 ± S.D (pVHL30)) is under 0.1 µM.
